Measurements taken from ChEMBL document CHEMBL3112438, “Structure-based optimization of cyclopropyl urea derivatives as potent soluble epoxide hydrolase inhibitors for potential decrease of renal injury without hypotensive action” (Bioorg Med Chem, 2014).
≈ marks a conversion by molar mass, not a printed value. Calls of active or inactive are those of the source. No cut-off for these calls is given here.

How the values were obtained:
[1] = target: T1, Bifunctional epoxide hydrolase 2 (Homo sapiens, UniProt P34913); experiment: Inhibition of human recombinant soluble epoxide hydrolase after 1 hr by fluorescence assay
T1 sequence (P34913 whole entry): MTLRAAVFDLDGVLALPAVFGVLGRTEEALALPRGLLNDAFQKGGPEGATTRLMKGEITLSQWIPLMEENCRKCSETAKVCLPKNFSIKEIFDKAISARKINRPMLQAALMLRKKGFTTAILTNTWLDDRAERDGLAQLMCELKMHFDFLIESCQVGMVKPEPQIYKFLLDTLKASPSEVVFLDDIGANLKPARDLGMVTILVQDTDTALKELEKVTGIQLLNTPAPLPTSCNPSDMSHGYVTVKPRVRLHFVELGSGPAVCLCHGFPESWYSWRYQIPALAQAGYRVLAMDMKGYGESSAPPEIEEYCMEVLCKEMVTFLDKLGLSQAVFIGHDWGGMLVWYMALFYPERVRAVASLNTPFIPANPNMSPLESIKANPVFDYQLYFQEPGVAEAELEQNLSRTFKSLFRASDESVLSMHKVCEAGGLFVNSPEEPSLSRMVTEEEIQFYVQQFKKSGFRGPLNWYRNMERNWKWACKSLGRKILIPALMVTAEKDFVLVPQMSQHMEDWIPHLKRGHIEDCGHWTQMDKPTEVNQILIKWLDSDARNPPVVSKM

[2] = target: T2, Bifunctional epoxide hydrolase 2 (Rattus norvegicus, UniProt P80299); experiment: Inhibition of rat recombinant soluble epoxide hydrolase after 1 hr by fluorescence assay
T2 sequence (P80299 whole entry): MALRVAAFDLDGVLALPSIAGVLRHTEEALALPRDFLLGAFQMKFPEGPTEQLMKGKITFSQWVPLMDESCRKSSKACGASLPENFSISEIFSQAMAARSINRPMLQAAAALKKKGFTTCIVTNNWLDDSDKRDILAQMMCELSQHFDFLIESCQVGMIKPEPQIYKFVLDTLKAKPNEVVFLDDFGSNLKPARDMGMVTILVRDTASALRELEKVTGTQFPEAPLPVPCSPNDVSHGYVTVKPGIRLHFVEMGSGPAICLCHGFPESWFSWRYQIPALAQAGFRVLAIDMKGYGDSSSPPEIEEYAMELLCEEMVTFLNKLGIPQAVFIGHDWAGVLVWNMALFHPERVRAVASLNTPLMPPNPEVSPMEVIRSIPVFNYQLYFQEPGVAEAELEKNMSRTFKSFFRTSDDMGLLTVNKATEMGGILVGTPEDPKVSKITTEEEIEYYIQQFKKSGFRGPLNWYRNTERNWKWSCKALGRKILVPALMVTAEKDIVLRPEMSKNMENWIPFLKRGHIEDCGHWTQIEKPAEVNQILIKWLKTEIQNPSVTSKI

[3] = Aqueous solubility of the compound at pH 7.4 after 90 mins; format: physicochemical
[4] = system: Liver microsome; experiment: Intrinsic clearance in rat liver microsomes measured per mg of protein at 1 uM after 30 mins by LC/MS/MS analysis; format: ADME; conditions: 0.5 h
[5] = system: Liver microsome; experiment: Intrinsic clearance in human liver microsomes measured per mg of protein at 1 uM after 30 mins by LC/MS/MS analysis; format: ADME; conditions: 0.5 h
[6] = target: T3, Cytochrome P450 2C8 (Homo sapiens, UniProt P10632); experiment: Inhibition of CYP2C8 in human liver microsomes after 10 mins by LC/MS/MS analysis; format: ADME
T3 sequence (P10632 whole entry): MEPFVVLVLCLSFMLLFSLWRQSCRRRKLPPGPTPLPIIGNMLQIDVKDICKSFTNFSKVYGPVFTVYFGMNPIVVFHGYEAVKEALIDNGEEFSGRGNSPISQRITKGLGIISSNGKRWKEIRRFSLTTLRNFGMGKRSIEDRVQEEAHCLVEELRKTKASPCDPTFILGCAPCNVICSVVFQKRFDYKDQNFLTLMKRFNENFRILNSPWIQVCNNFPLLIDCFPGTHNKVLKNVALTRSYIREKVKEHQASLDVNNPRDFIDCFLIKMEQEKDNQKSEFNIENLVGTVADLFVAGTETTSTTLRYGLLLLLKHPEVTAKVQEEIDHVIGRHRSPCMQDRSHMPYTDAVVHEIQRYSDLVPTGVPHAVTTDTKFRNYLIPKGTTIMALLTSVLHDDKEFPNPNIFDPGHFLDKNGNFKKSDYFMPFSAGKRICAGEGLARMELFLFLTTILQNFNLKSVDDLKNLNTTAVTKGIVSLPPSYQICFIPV

[7] = system: Rattus norvegicus; experiment: Bioavailability in Sprague-Dawley rat at 1 mg/kg, iv and 10 mg/kg, po; format: ADME, organism-based; conditions: in vivo
[8] = target: T4, Cytochrome P450 2C19 (Homo sapiens, UniProt P33261); experiment: Inhibition of CYP2C19 in human liver microsomes after 10 mins by LC/MS/MS analysis; format: ADME
T4 sequence (P33261 whole entry): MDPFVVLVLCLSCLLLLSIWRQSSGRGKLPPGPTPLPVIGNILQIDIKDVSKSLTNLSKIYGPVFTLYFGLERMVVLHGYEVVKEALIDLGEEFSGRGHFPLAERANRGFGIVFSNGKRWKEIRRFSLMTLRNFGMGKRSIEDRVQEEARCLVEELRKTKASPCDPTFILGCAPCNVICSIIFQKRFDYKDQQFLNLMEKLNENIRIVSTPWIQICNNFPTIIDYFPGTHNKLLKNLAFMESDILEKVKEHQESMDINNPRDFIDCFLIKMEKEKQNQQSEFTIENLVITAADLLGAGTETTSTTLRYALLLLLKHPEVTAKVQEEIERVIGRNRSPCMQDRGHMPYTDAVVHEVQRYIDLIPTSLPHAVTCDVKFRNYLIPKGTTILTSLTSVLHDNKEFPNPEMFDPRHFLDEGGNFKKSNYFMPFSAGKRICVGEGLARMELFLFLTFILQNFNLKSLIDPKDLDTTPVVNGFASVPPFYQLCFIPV

[9] = system: Rattus norvegicus; experiment: AUC in Sprague-Dawley rat at 10 mg/kg, po; format: ADME, organism-based, Plasma; set-up: dose 10 mg/kg, route oral; conditions: in vivo
[10] = system: Rattus norvegicus; experiment: Renoprotective activity in Sprague-Dawley rat DOCA-salt model assessed as decrease in urinary albumin excretion at 100 mg/kg, po measured on day 28 post last dose; format: functional, organism-based; set-up: dose 100 mg/kg; conditions: Urine
[11] = system: Rattus norvegicus; experiment: Renoprotective activity in Sprague-Dawley rat DOCA-salt model assessed as decrease in urinary MCP-1 excretion at 100 mg/kg, po measured on day 28 post last dose; format: functional, organism-based; set-up: dose 100 mg/kg; conditions: Urine
[12] = system: Rattus norvegicus; experiment: Renal toxicity in Sprague-Dawley rat DOCA-salt model assessed as effect on N-acetyl-beta-D-glucosaminidase level at 100 mg/kg, po measured on day 28 post last dose; format: organism-based; set-up: dose 100 mg/kg, route oral; conditions: in vivo
[13] = system: Rattus norvegicus; experiment: Ex vivo inhibition of soluble epoxide hydrolase in Sprague-Dawley rat whole blood assessed as inhibition of 14,15-DHET production at 100 mg/kg, po measured after 1 to 6 hrs by ELISA relative to vehicle-treated control; format: functional
[14] = system: Rattus norvegicus; experiment: Ex vivo inhibition of soluble epoxide hydrolase in po dosed Sprague-Dawley rat assessed as inhibition of 14,15-DHET production measured after 1 to 24 hrs by ELISA; format: functional, organism-based
[15] = system: Rattus norvegicus; experiment: Antihypertensive activity in Sprague-Dawley rat DOCA-salt model assessed as decrease in systolic blood pressure at 100 mg/kg, po measured on day 28 post last dose by tail-cuff method; format: functional, organism-based; set-up: dose 100 mg/kg; conditions: Artery
[16] = target: T4, Cytochrome P450 2C19; experiment: Inhibition of CYP2C19 in human liver microsomes after 10 mins by mechanism-based assay; format: ADME
[17] = target: T3, Cytochrome P450 2C8; experiment: Inhibition of CYP2C8 in human liver microsomes after 10 mins by mechanism-based assay; format: ADME

| SMILES | IC50 [1] | IC50 [2] | other results |
| --- | --- | --- | --- |
| O=C(N[C@H]1C[C@@H]1c1ccccc1)N1CCC(Oc2cccc(Cl)c2)CC1 (racemic) | 12 nM | 8 nM |  |
| Cc1ccccc1OC1CCN(C(=O)N[C@H]2C[C@@H]2c2ccccc2)CC1 (racemic) | 3.1 nM | 4.2 nM | solubility at 1.5 h [3]: < 0.2 µg/mL |
| Cc1ccc(OC2CCN(C(=O)N[C@H]3C[C@@H]3c3ccccc3)CC2)cc1 (racemic) | 14.2 nM | 6.8 nM |  |
| O=C(N[C@H]1C[C@@H]1c1ccccc1)N1CCC(Oc2ccccc2C(F)(F)F)CC1 (racemic) | 2.1 nM | 3.2 nM |  |
| COc1ccc(OC2CCN(C(=O)N[C@H]3C[C@@H]3c3ccccc3)CC2)cc1 (racemic) | 10.2 nM | 5 nM |  |
| O=C(N[C@H]1C[C@@H]1c1ccccc1)N1CCC(Oc2ccccc2-c2ccccc2)CC1 (racemic) | 14.7 nM | 20.7 nM |  |
| O=C(O)c1ccccc1OC1CCN(C(=O)N[C@H]2C[C@@H]2c2ccccc2)CC1 (racemic) | > 100 nM | > 100 nM |  |
| O=C(O)c1cccc(OC2CCN(C(=O)N[C@H]3C[C@@H]3c3ccccc3)CC2)c1 (racemic) | > 100 nM | > 100 nM | CLint [4]: < 0.01 mL/min/mg; CLint [5]: < 0.01 mL/min/mg; solubility at 1.5 h [3]: > 150 µg/mL |
| O=C(O)c1ccc(OC2CCN(C(=O)N[C@H]3C[C@@H]3c3ccccc3)CC2)cc1 (racemic) | 30.3 nM | 32.2 nM | CLint [4]: < 0.01 mL/min/mg; CLint [5]: < 0.01 mL/min/mg; solubility at 1.5 h [3]: > 150 µg/mL |
| O=C(N[C@H]1C[C@@H]1c1ccccc1)N1CCC(Oc2ccc(-c3nnn[nH]3)cc2)CC1 (racemic) | 3.3 nM | 6.6 nM | CLint [4]: < 0.01 mL/min/mg; IC50 [6]: 0.8 µM; CLint [5]: < 0.033 mL/min/mg; solubility at 1.5 h [3]: > 150 µg/mL |
| O=C(O)c1ccc(OC2CCN(C(=O)N[C@H]3C[C@@H]3c3ccccc3)CC2)c(Cl)c1 (racemic) | 2.6 nM | 4.1 nM | F [7]: 31%; CLint [4]: < 0.01 mL/min/mg; IC50 [8]: > 50 µM; AUC [9]: 15900 ng·h/mL; IC50 [6]: > 50 µM; CLint [5]: < 0.01 mL/min/mg; solubility at 1.5 h [3]: > 150 µg/mL |
| O=C(O)Cc1ccc(OC2CCN(C(=O)N[C@H]3C[C@@H]3c3ccccc3)CC2)c(Cl)c1 (racemic) | 4.3 nM | 6.6 nM | F [7]: 63%; CLint [4]: < 0.01 mL/min/mg; Activity [10]: Active; Activity [11]: Active; IC50 [8]: > 50 µM; AUC [9]: 30400 ng·h/mL; IC50 [6]: > 50 µM; Activity [12]: Non-toxic; inhibition in vivo at 100 mg/kg [13]: < 20%; inhibition [14]: Dose-dependent effect; CLint [5]: < 0.01 mL/min/mg; solubility at 1.5 h [3]: > 150 µg/mL; Activity [15]: inactive |
| O=C(N[C@H]1C[C@@H]1c1ccccc1)N1CCC(Oc2ccccc2)CC1 (racemic) | 18 nM | 18.3 nM |  |
| O=C(N[C@H]1C[C@@H]1c1ccccc1)N1CCC(Oc2ncccn2)CC1 (racemic) | 94.2 nM | > 100 nM |  |
| O=C(N[C@H]1C[C@@H]1c1ccccc1)N1CCC(OC(c2ccccc2)c2ccccc2)CC1 (racemic) | 27.1 nM | 5.2 nM |  |
| O=C(N[C@H]1C[C@@H]1c1ccccc1)N1CCC(Oc2ccc(C(F)(F)F)cc2)CC1 (relative stereo) | 29.8 nM | 8.9 nM |  |
| COc1cccc(OC2CCN(C(=O)N[C@H]3C[C@@H]3c3ccccc3)CC2)c1 (relative stereo) | 7.4 nM | 5.1 nM |  |

Further compounds by falling IC50 [2], results first:

| IC50 [1] | IC50 [2] | SMILES | other results |
| --- | --- | --- | --- |
| 43.2 nM | 56.6 nM | O=C(O)Cc1ccc(OC2CCN(C(=O)N[C@H]3C[C@@H]3c3ccccc3)CC2)cc1 (relative stereo) | CLint [4]: < 0.01 mL/min/mg; CLint [5]: < 0.033 mL/min/mg; solubility at 1.5 h [3]: > 150 µg/mL |
| 27.4 nM | 35.4 nM | O=C(N[C@H]1C[C@@H]1c1ccccc1)N1CCC(Oc2ccccn2)CC1 (racemic) |  |
| 26.7 nM | 25.6 nM | O=C(N[C@H]1C[C@@H]1c1ccccc1)N1CCC(Oc2cnccn2)CC1 (racemic) |  |
| 25.2 nM | 20.2 nM | O=C(N[C@H]1C[C@@H]1c1ccccc1)N1CCC(Oc2cccnc2)CC1 (racemic) |  |
| 11.3 nM | 12.8 nM | COc1ccccc1OC1CCN(C(=O)N[C@H]2C[C@@H]2c2ccccc2)CC1 (racemic) |  |
| 24.4 nM | 12.3 nM | O=C(N[C@H]1C[C@@H]1c1ccccc1)N1CCC(Oc2ccncc2)CC1 (racemic) |  |
| 15.8 nM | 10.5 nM | O=C(N[C@H]1C[C@@H]1c1ccccc1)N1CCC(Oc2cccc(C(F)(F)F)c2)CC1 (racemic) |  |
| 22.4 nM | 9.3 nM | O=C(N[C@H]1C[C@@H]1c1ccccc1)N1CCC(Oc2ccc(Cl)cc2)CC1 (racemic) |  |
|  | 8.3 nM | CC(C)c1noc(C2CCN(C(=O)N[C@H]3C[C@@H]3c3ccccc3)CC2)n1 (relative stereo) | CLint [4]: 0.079 mL/min/mg; CLint [5]: < 0.01 mL/min/mg; inhibition (INH) [16]: Active; solubility at 1.5 h [3]: 41 µg/mL (≈ 116 µM); inhibition (INH) [17]: Active |
| 12 nM | 6.7 nM | O=C(N[C@H]1C[C@@H]1c1ccccc1)N1CCC(Oc2ccc(-c3ccccc3)cc2)CC1 (racemic) |  |
| 8.9 nM | 6.5 nM | Cc1cccc(OC2CCN(C(=O)N[C@H]3C[C@@H]3c3ccccc3)CC2)c1 (racemic) |  |
| 10.7 nM | 5.9 nM | O=C(N[C@H]1C[C@@H]1c1ccccc1)N1CCC(Oc2cccc(-c3ccccc3)c2)CC1 (racemic) |  |
| 2 nM | 3.5 nM | O=C(N[C@H]1C[C@@H]1c1ccccc1)N1CCC(Oc2ccccc2Cl)CC1 (racemic) |  |
